Source: ChEMBL document CHEMBL1201862, “PubChem BioAssay data set” (2004)
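Interpolation was linear, between the two tested concentrations surrounding the appropriate level; five concentrations were tested over 48 hours in 96-well plates. GI50 is the concentration that inhibits growth by half.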 The source made the active and inactive calls. Cut-off read from the data, not from the text of the source: active = GI50 up to about 1.1 µM and inactive = higher.

Experiments:
Experiment in all cases: NCI tumour cell line growth inhibition, 48 h
A498 = system: A498
SK-MEL-2 = system: SK-MEL-2
RPMI-8226 = system: RPMI-8226
SR = system: SR
U-251 = system: U-251
PC-3 = system: PC-3
UACC-62 = system: UACC-62
SNB-19 = system: SNB-19
COLO 205 = system: COLO 205
M14 = system: M14
K562 = system: K562
DU-145 = system: DU-145
RXF 393 = system: RXF 393
MOLT-4 = system: MOLT-4
SNB-75 = system: SNB-75
NCI-H226 = system: NCI-H226
SK-MEL-28 = system: SK-MEL-28
786-0 = system: 786-0
SK-OV-3 = system: SK-OV-3
SK-MEL-5 = system: SK-MEL-5

Measured: GI50

O=C(O)/C=C\C(=O)Nc1ccccn1
inactive: A498 > 100 µM | SK-MEL-2 > 100 µM | RPMI-8226 > 100 µM | SR > 100 µM | U-251 > 100 µM | PC-3 > 100 µM | UACC-62 > 100 µM | SNB-19 > 100 µM | COLO 205 > 100 µM | M14 > 100 µM | K562 > 100 µM | DU-145 > 100 µM | RXF 393 > 100 µM | MOLT-4 > 100 µM | SNB-75 > 100 µM | NCI-H226 > 100 µM | SK-MEL-28 > 100 µM | 786-0 > 100 µM | SK-OV-3 > 100 µM | SK-MEL-5 > 100 µM

CC(Br)C(=O)Nc1ccc(C(=O)O)c(O)c1 (stereo not given)
inactive: A498 > 100 µM | SK-MEL-2 32.4 µM | RPMI-8226 > 100 µM | SR 32.9 µM | U-251 23.2 µM | PC-3 34 µM | UACC-62 33.6 µM | SNB-19 37.2 µM | COLO 205 > 100 µM | M14 33.4 µM | K562 49.8 µM | DU-145 > 100 µM | RXF 393 53.6 µM | MOLT-4 36.1 µM | SNB-75 43.5 µM | NCI-H226 93.5 µM | SK-MEL-28 47.4 µM | 786-0 37.6 µM | SK-OV-3 38.5 µM | SK-MEL-5 62.5 µM

COc1cc(Cn2c3c(c4cc(O)ccc42)Cc2ccccc2C3=O)cc(OC)c1
inactive: A498 > 100 µM | SK-MEL-2 > 100 µM | RPMI-8226 5.62 µM | SR 6.46 µM | U-251 57.3 µM | PC-3 56.5 µM | UACC-62 38.2 µM | SNB-19 > 100 µM | COLO 205 28.9 µM | M14 68.1 µM | K562 44.7 µM | DU-145 58.1 µM | RXF 393 > 100 µM | MOLT-4 28.9 µM | SNB-75 15.5 µM | NCI-H226 > 100 µM | SK-MEL-28 31.8 µM | 786-0 58.3 µM | SK-OV-3 > 100 µM | SK-MEL-5 35.7 µM

C#C[C@]1(O)CC[C@H]2[C@@H]3CCC4=C/C(=N/OC(=O)c5cccc6cc7ccccc7nc56)CC[C@@H]4[C@H]3CC[C@@]21CC
inactive: A498 > 100 µM | SK-MEL-2 > 100 µM | RPMI-8226 > 100 µM | SR 44.4 µM | U-251 > 100 µM | PC-3 > 100 µM | UACC-62 > 100 µM | SNB-19 > 100 µM | COLO 205 49.7 µM | M14 > 100 µM | K562 > 100 µM | DU-145 > 100 µM | RXF 393 > 100 µM | MOLT-4 > 100 µM | SNB-75 > 100 µM | NCI-H226 > 100 µM | SK-MEL-28 > 100 µM | 786-0 > 100 µM | SK-OV-3 > 100 µM | SK-MEL-5 > 100 µM

CC(O)C1(CNc2cc(Cl)nc(N)n2)CC(CCc2ccccc2)C1 (stereo not given)
inactive: A498 13.7 µM | SK-MEL-2 17.2 µM | RPMI-8226 11.6 µM | SR 6.15 µM | U-251 14.5 µM | PC-3 11.6 µM | UACC-62 11.9 µM | SNB-19 15.8 µM | COLO 205 15.5 µM | M14 17.9 µM | K562 6.78 µM | DU-145 16.4 µM | RXF 393 16.6 µM | MOLT-4 11.6 µM | SNB-75 15.5 µM | NCI-H226 14.7 µM | SK-MEL-28 14.3 µM | 786-0 18.2 µM | SK-OV-3 15.1 µM | SK-MEL-5 5.71 µM

OC(CC1CCCCN1)c1ccc2c(c1)oc1ccccc12 (stereo not given)
inactive: A498 23.4 µM | SK-MEL-2 34 µM | RPMI-8226 46.1 µM | SR 67.3 µM | U-251 > 100 µM | PC-3 71 µM | UACC-62 22.6 µM | SNB-19 > 100 µM | COLO 205 19.1 µM | M14 18.8 µM | K562 39.5 µM | DU-145 > 100 µM | RXF 393 57.3 µM | MOLT-4 28.2 µM | SNB-75 39.6 µM | NCI-H226 74.5 µM | SK-MEL-28 34 µM | 786-0 > 100 µM | SK-OV-3 > 100 µM | SK-MEL-5 17.8 µM
